Experimental data from patent US11072588B2, “Barbituric acid derivatives comprising cationic and lipophilic groups” (UNIVERSITETET I TROMSØ—NORGES ARKTISKE UNIVERSITET, priority 2017, dated 2021).
Values after ≈ are worked out from the molar mass of the structure shown. Where two headings read alike, the source gives them in different places.

Legend:
[1] = Determination of haemolytic activity; assay type: cell-based; conditions: human red blood cells (washed, from heparinized fresh blood); human RBCs, 1 h, 37° C.; read-out: RBC: haemolytic activity against human RBCs (EC50)
Protocol: Hemolysis was determined using a heparinized fraction (1000 IU/mL) of freshly drawn blood. Blood collected in EDTA containing test tubes (Vacutest®, KIMA, Arzergrande, Italy) was used for determination of the hematocrit (hct). The heparinized blood was washed 3× with pre-warmed PBS and adjusted to a final hct of 4%. Derivatives in DMSO (50 mM) were added to a 96-well polypropylene V-bottom plate (NUNC, Fisher Scientific, Oslo, Norway) and serially diluted. The test concentration range was 500-4 μM with DMSO contents ≤1%. A solution of 1% triton X-100 was used as positive control for 100% hemolysis. As negative control a solution of 1% DMSO in PBS buffer was included. No signs of DMSO toxicity were detected. RBCs (1% v/v final concentration) were added to the well plate and incubated at 37° C. and 800 rpm for 1 h. After centrifugation (5 min, 3000 g), 100 μL of each well were transferred to a 96-well flat bottom plate and absorbance was measured at 545 nm with a microplate reader (VersaMax™, Molecular Devices, Sunnyvale, Calif., USA). The percentage of hemolysis was calculated as the ratio of the absorbance in the derivative-treated and surfactant treated samples, corrected for the PBS background. Three independent experiments were performed and EC50 values are presented as averages.

[2] = tested on: P. aeruginosa K44-24; assay: MIC, multi-resistant clinical isolate; assay type: cell-based, Pseudomonas aeruginosa; conditions: for MIC: Pseudomonas aeruginosa, K4424, read-out: Antimicrobial activity (MIC)
Protocol: (§1) Working solutions of the test derivatives were prepared with up to 100% DMSO and stored at −20° C. If necessary, the solutions were heated to 40-80° C. before testing to facilitate complete dissolution. Double-distilled water was used in all dilutions prepared. […] A microdilution susceptibility test was used for MIC determination according to Clinical and Laboratory Standards Institute, “Methods for Dilution Antimicrobial Sisceptibility Tests for Bacteria That Graw Aerobically”, Approved Standard M07-A9, edition 2012, with modifications as described by Igumnova et al (Bioorg Med Chem, 2016, 24 (22), 5884-5894).
(§2) Briefly, the bacterial inoculum was adjusted to approximately 2.5-3×10^4 cells/mL in Mueller-Hinton broth (MHB, Difco Laboratories, USA), and incubated in a ratio of 1:1 with test derivatives in polystyrene 96-well flat-bottom microplates (NUNC, Roskilde, Denmark). Positive growth control (without test derivatives) and negative control (without bacteria) were included. The reference antibiotic was oxytetracycline hydrochloride (Sigma Aldrich, Saint Louis, Mo., USA). The microplates were incubated in an EnVision microplate reader (Perkin-Elmer, Turku, Finland) placed in an incubator set to 35° C. for 48 h. The MIC value was defined as the lowest concentration of derivative resulting in no bacterial growth as determined by OD600 measurement. All derivatives were tested in three parallels.
(§3) The MIC was determined as explained above with some exceptions; working solutions of test derivatives were prepared from concentrated DMSO stocks stored at room temperature, the density of the bacterial inoculum was increased 40× to 1-1.2×10^6 cells/mL, enterococci were incubated in Brain Heart Infusion broth (BHIB, Difco Laboratories, USA), the microplates were incubated for 24 h, and the derivatives were tested in four parallels.

[3] = tested on: P. aeruginosa 50692520; assay: MIC, multi-resistant clinical isolate; assay type: cell-based, Pseudomonas aeruginosa; conditions: for MIC: Pseudomonas aeruginosa, read-out: Antimicrobial activity (MIC)
Protocol: as §1, §2, §3

[4] = tested on: P. aeruginosa 50692172; assay: MIC, multi-resistant clinical isolate; assay type: cell-based, Pseudomonas aeruginosa; conditions: for MIC: Pseudomonas aeruginosa, read-out: Antimicrobial activity (MIC)
Protocol: as §1, §2, §3

[5] = tested on: P. aeruginosa K34-73; assay: MIC, multi-resistant clinical isolate; assay type: cell-based, Pseudomonas aeruginosa; conditions: for MIC: Pseudomonas aeruginosa
Protocol: as §1, §2, §3

[6] = tested on: P. aeruginosa K34-7; assay: MIC, multi-resistant clinical isolate; assay type: cell-based, Pseudomonas aeruginosa; conditions: for MIC: Pseudomonas aeruginosa, K347, read-out: Antimicrobial activity (MIC)
Protocol: as §1, §2, §3

[7] = tested on: S. aureus NCTC 10442; assay: MIC, multi-resistant clinical isolate; assay type: cell-based, Staphylococcus aureus; conditions: for selectivity index (EC50/MIC): RBC EC50 / MIC, S. aureus NCTC 10442; for MIC: Staphylococcus aureus, NCTC10442, read-out: Antimicrobial activity (MIC)
Protocol: as §1, §2, §3

[8] = tested on: S. aureus N315; assay: MIC, multi-resistant clinical isolate; assay type: cell-based, Staphylococcus aureus; conditions: for selectivity index (EC50/MIC): RBC EC50 / MIC, S. aureus N315; for MIC: Staphylococcus aureus, N315, read-out: Antimicrobial activity (MIC)
Protocol: as §1, §2, §3

[9] = tested on: S. aureus strain WIS; assay: MIC, multi-resistant clinical isolate; assay type: cell-based, Staphylococcus aureus; conditions: for selectivity index (EC50/MIC): RBC EC50 / MIC, S. aureus strain WIS; for MIC: Staphylococcus aureus, read-out: Antimicrobial activity (MIC)
Protocol: as §1, §2, §3

[10] = tested on: S. aureus IHT 99040; assay: MIC, multi-resistant clinical isolate; assay type: cell-based, Staphylococcus aureus; conditions: for selectivity index (EC50/MIC): RBC EC50 / MIC; for MIC: Staphylococcus aureus, IHT99040, read-out: Antimicrobial activity (MIC)
Protocol: as §1, §2, §3

[11] = tested on: S. aureus strain 85/2082; assay: MIC, multi-resistant clinical isolate; assay type: cell-based, Staphylococcus aureus; conditions: for selectivity index (EC50/MIC): RBC EC50 / MIC, S. aureus strain 85/2082; for MIC: Staphylococcus aureus, 85/2082, read-out: Antimicrobial activity (MIC)
Protocol: as §1, §2, §3

[12] = tested on: antibiotic susceptible Gram-positive and Gram-negative reference strains; assay: MIC assay, ranges over the reference strains; assay type: cell-based
Protocol: as §1, §2

[13] = tested on: K. pneumoniae 50531633; assay: MIC, multi-resistant clinical isolate; assay type: cell-based, Klebsiella pneumoniae; conditions: K. pneumoniae 50531633, resistant to colistin; for MIC: Klebsiella pneumoniae, 24 h, read-out: Antimicrobial activity (MIC); for selectivity index (EC50/MIC): RBC EC50 / MIC
Protocol: as §1, §2, §3

[14] = tested on: K. pneumoniae K66-45; assay: MIC, multi-resistant clinical isolate; assay type: cell-based, Klebsiella pneumoniae; conditions: for MIC: Klebsiella pneumoniae, K6645, read-out: Antimicrobial activity (MIC); for selectivity index (EC50/MIC): RBC EC50 / MIC, K. pneumoniae K66-45
Protocol: as §1, §2, §3

[15] = tested on: K. pneumoniae 50625602; assay: MIC, multi-resistant clinical isolate; assay type: cell-based, Klebsiella pneumoniae; conditions: for MIC: Klebsiella pneumoniae, read-out: Antimicrobial activity (MIC); for selectivity index (EC50/MIC): RBC EC50 / MIC
Protocol: as §1, §2, §3

[16] = tested on: K. pneumoniae 50667959; assay: MIC, multi-resistant clinical isolate; assay type: cell-based, Klebsiella pneumoniae; conditions: for MIC: Klebsiella pneumoniae, read-out: Antimicrobial activity (MIC); for selectivity index (EC50/MIC): RBC EC50 / MIC
Protocol: as §1, §2, §3

[17] = tested on: K. pneumoniae K47-25; assay: MIC, multi-resistant clinical isolate; assay type: cell-based, Klebsiella pneumoniae; conditions: for MIC: Klebsiella pneumoniae, K4725, 24 h, read-out: Antimicrobial activity (MIC)
Protocol: as §1, §2, §3

SMILES	EC50 at 1 h [1] [mg/L]	MIC [2] [mg/L]	MIC [3] [mg/L]	MIC [4] [mg/L]	MIC [6] [mg/L]	selectivity index (EC50/MIC) [7]	MIC [7] [mg/L]	selectivity index (EC50/MIC) [8]	MIC [8] [mg/L]	selectivity index (EC50/MIC) [9]	MIC [9] [mg/L]	selectivity index (EC50/MIC) [10]	MIC [10] [mg/L]	selectivity index (EC50/MIC) [11]	MIC [11] [mg/L]	MIC [13] [mg/L]	selectivity index (EC50/MIC) [13]	MIC [14] [mg/L]	selectivity index (EC50/MIC) [14]	MIC [15] [mg/L]	also measured
CC(C)(C)c1ccc(CC2(Cc3ccc(C(C)(C)C)cc3)C(=O)N(CCCCN)C(=O)N(CCCCN)C2=O)cc1 [Compound 7(i), 1,3-bis(4-aminobutyl)-5,5-bis(4-tertbutylbenzyl) pyrimidin-2,4,6(1H,3H,5H)-trione]	143 (≈ 254 µM)	> 32	> 32	> 32	> 32	(18)	8 (≈ 14.2 µM)	(18)	8 (≈ 14.2 µM)	(18)	8 (≈ 14.2 µM)	(18)	8 (≈ 14.2 µM)	(18)	8 (≈ 14.2 µM)	16 (≈ 28.4 µM)	(9)	32 (≈ 56.9 µM)	(4)	16 (≈ 28.4 µM)	MIC ([5]; K3473, read-out: Antimicrobial activity (MIC)): > 32 mg/L; MIC ([12]; range over S. aureus, C. glutamicum, E. coli, P. aeruginosa reference strains, read-out: MIC values against all the reference strains): 1 to 8 mg/L (≈ 1.78 to 14.2 µM); selectivity index (EC50/MIC) [15]: (9); MIC [16]: 32 mg/L (≈ 56.9 µM); selectivity index (EC50/MIC) [16]: (4); MIC [17]: > 32 mg/L
CC(C)(C)c1ccc(CC2(Cc3ccc(C(C)(C)C)cc3)C(=O)N(CCCCNC(=N)N)C(=O)N(CCCCNC(=N)N)C2=O)cc1 [Compound 8(i), 1,1′-(4,4′-(5,5-bis(4-tert-butylbenzyl)-2,4,6-trioxodihydropyrimidine-1,3(2H,4H)-diyl)bis(butane-4,1-diyl))diguanidine]	77 (≈ 119 µM)	16 (≈ 24.7 µM)	16 (≈ 24.7 µM)	16 (≈ 24.7 µM)	16 (≈ 24.7 µM)	(39)	2 (≈ 3.09 µM)	(39)	2 (≈ 3.09 µM)	(39)	2 (≈ 3.09 µM)	(39)	2 (≈ 3.09 µM)	(39)	2 (≈ 3.09 µM)	4 (≈ 6.18 µM)	(19)	4 (≈ 6.18 µM)	(19)	4 (≈ 6.18 µM)	selectivity index (EC50/MIC) ([2]; RBC EC50 / MIC): (5); selectivity index (EC50/MIC) ([3]; RBC EC50 / MIC): (5); selectivity index (EC50/MIC) ([4]; RBC EC50 / MIC): (5); MIC ([5]; K3473, P. aeruginosa K34-73, read-out: Antimicrobial activity (MIC)): 8 mg/L (≈ 12.4 µM); selectivity index (EC50/MIC) ([5]; RBC EC50 / MIC, P. aeruginosa K34-73): (10); selectivity index (EC50/MIC) ([6]; RBC EC50 / MIC, P. aeruginosa K34-7): (5); MIC ([12]; reference strains, range, read-out: MIC values against the Gram-negative bacteria E. coli and P. aeruginosa): 1 to 4 mg/L (≈ 1.55 to 6.18 µM); selectivity index (EC50/MIC) [15]: (19); MIC [16]: 16 mg/L (≈ 24.7 µM); selectivity index (EC50/MIC) [16]: (5); MIC ([17]; K. pneumoniae K47-25, resistant to colistin): 4 mg/L (≈ 6.18 µM); selectivity index (EC50/MIC) ([17]; RBC EC50 / MIC, K. pneumoniae K47-25, resistant to colistin): (19)
